Test results published in US11603395B2, “Antitumor peptide and use thereof” (TOAGOSEI CO., LTD, priority 2019, dated 2023).
Read-outs that look alike come from different tables or passages of the source. Where no end group is shown, it is not given here.

Tests used:
[1] = system: human kidney cancer cell lines (CAKI2); assay: Antitumor index from viability of CAKI2 cells vs MCF-12F normal cells (Cell Counting Kit-8, WST-8); type: cell-based; conditions: 48 hours; for Proliferation of CAKI2 cells (in words): 6.25-25 μM; for Antitumor index: CAKI2 viability A / MCF-12F viability B
Procedure: (§1) Then, peptide-containing test culture mediums for each concentration were prepared so that the concentrations of the sample peptides to be evaluated were 6.25 μM, 12.5 μM, and 25 μM and supplied to wells (that is, wells after the pre-incubation) in which 90 μL of cells to be evaluated were cultured in each well. Then, the 96-hole (well) plate was returned to the CO2 incubator and incubated under conditions of 37° C. and 5% CO2 for 48 hours.
(§2) After the incubation for 48 hours was completed, the culture medium in each well was substituted with 100 μL of a fresh culture medium containing no peptide, and additionally, 10 μL of a cell proliferation measurement reagent “Cell Counting Kit-8” (product, commercially available from Dojindo Laboratories) containing a “water-soluble tetrazolium salt (WST-8)” as a coloring reagent was added to each well. Then, the 96-well plate was returned to the CO2 incubator and incubated under conditions of 37° C., and 5% CO2 for 1.5 hours to 2 hours.
(§3) After the incubation was completed, the cell culture solution to which the reagent was added was collected and the cell viability (%) was calculated according to a colorimetric method in which an absorbance at a wavelength of 450 nm (value corrected by the absorbance at a wavelength of 620 nm: A450-A620) was measured based on the reduction of the tetrazolium salt. Specifically, a measured value (measurement absorbance) of a comparative test group in which the above incubation was performed for 48 hours in a culture medium containing no sample peptide was set as a cell viability of 100%. Then, the viability A (%) of A2058 cells and the viability B (%) of MCF-12F cells were calculated. In addition, an antitumor index was calculated based on the viability of A2058 cells and MCF-12F cells using the above Formula (1), and thus the antitumor activity of the sample peptide with respect to A2058 cells was evaluated.
The antitumor activity of Sample 3 and Sample 4 in the above Test Example 1 was evaluated using different tumor cells as targets.
Specifically, currently commercially available human kidney cancer cell lines (CAKI2) were used as test tumor cells. In addition, the above MCF-12F cells were used for comparison.
a McCoy's 5A culture medium (product, commercially available from Gibco) containing 2 mM of L-glutamine, 3,000 mg/L of glucose, 100 unit/mL of penicillin, 100 μg/mL of streptomycin, and 10% fetal bovine serum (FBS).
Details of the test were as those described in Test Example 2. The antitumor index based on the viabilities of CAKI2 cells and MCF-12F cells calculated using the above Formula (1) is shown in Table 3.

[2] = system: human melanoma (A2058) cell lines; assay: Antitumor index from viability of A2058 cells vs MCF-12F normal cells (Cell Counting Kit-8, WST-8); type: cell-based; conditions: 48 hours; for Antitumor activity / proliferation of A2058 cells (in words): 6.25-25 μM; for Antitumor index: A2058 viability A / MCF-12F viability B, n=6 wells
Procedure: Specifically, for example, a test using a conventionally known cell proliferation measurement reagent using a tetrazolium salt is performed so that the antitumor index can be calculated. In a preferable aspect, first, the antitumor composition disclosed here is added to a culture solution containing tumor cells, culture is performed for a predetermined time (for example, 24 hours or longer and 72 hours or shorter), and the viability A (%) of tumor cells is calculated. In addition, the viability B (%) of normal cells cultured under the same conditions is calculated. Then, the antitumor index based on the viabilities of tumor cells and normal cells calculated in this manner can be evaluated according to, for example, the following Formula (1):
Antitumor index based on viabilities of tumor cells and normal cells=A/B (1).
The antitumor activity of the peptides of Samples 1 to 4 synthesized in the above Test Example 1 was evaluated using human-derived cultured tumor cells as targets.
Specifically, currently commercially available human melanoma (A2058) cell lines were used as test tumor cells. In addition, a normal human mammary epithelial cell culture line (MCF-12F) was used for comparison. Here, culture solutions of respective cells are as follows.
A2058 cells and MCF-12F cells were cultured and prepared so that the number of cells per well in a 96-hole (well) plate was about 5×10^3. An amount of the culture medium in this case was 100 μL per well.
Next, the 96-hole (well) plate was placed in a CO2 incubator and pre-incubated under conditions of 37° C. and 5% CO2 for about 1 day (21 hours to 24 hours).
as §1
Here, the number of test wells (n) at peptide concentrations in peptide addition test groups was set to 6. Therefore, the value of the result shown in the following table is an average value of the results obtained in 6 test wells.
as §2, §3

[3] = system: human melanoma cell line (SK-MEL5); assay: Antitumor index from viability of SK-MEL5 cells vs MCF-12F normal cells (Cell Counting Kit-8, WST-8); type: cell-based; conditions: 6.25 μM, 48 hours
[4] = system: A2058 cells (tumor cells); type: cell-based, human; conditions: 48 hours; for Cell viability (%): human
Procedure: Then, peptide-containing test culture mediums for each concentration were prepared so that the concentrations of the sample peptides to be evaluated were 6.25 μM, 12.5 μM, and 25 μM and supplied to wells (that is, wells after the pre-incubation) in which 90 μL of cells to be evaluated were cultured in each well. Then, the 96-hole (well) plate was returned to the CO2 incubator and incubated under conditions of 37° C. and 5% CO2 for 48 hours. After the incubation for 48 hours was completed, the culture medium in each well was substituted with 100 μL of a fresh culture medium containing no peptide, and additionally, 10 μL of a cell proliferation measurement reagent “Cell Counting Kit-8” (product, commercially available from Dojindo Laboratories) containing a “water-soluble tetrazolium salt (WST-8)” as a coloring reagent was added to each well. Then, the 96-well plate was returned to the CO2 incubator and incubated under conditions of 37° C., and 5% CO2 for 1.5 hours to 2 hours. After the incubation was completed, the cell culture solution to which the reagent was added was collected and the cell viability (%) was calculated according to a colorimetric method in which an absorbance at a wavelength of 450 nm (value corrected by the absorbance at a wavelength of 620 nm: A450-A620) was measured based on the reduction of the tetrazolium salt. Specifically, a measured value (measurement absorbance) of a comparative test group in which the above incubation was performed for 48 hours in a culture medium containing no sample peptide was set as a cell viability of 100%. Then, the viability A (%) of A2058 cells and the viability B (%) of MCF-12F cells were calculated. In addition, an antitumor index was calculated based on the viability of A2058 cells and MCF-12F cells using the above Formula (1), and thus the antitumor activity of the sample peptide with respect to A2058 cells was evaluated. Using tumor cells as targets, the antitumor activity was evaluated using a synthetic peptide having a sequence completely different from those of Samples 1 to 4. Specifically, the viability (%) of A2058 cells (tumor cells) when Sample 5 was treated was evaluated. Details of the test were as those described in Test Example 2. Here, the viability of A2058 cells cultured in a culture medium containing no Sample 5 for the same time was set as 100%, and the viability (%) of A2058 cells cultured under the treatment of Sample 5 was calculated.

Substance	Proliferation of CAKI2 cells (in words) [1]	Antitumor index ([1]; peptide 6.25 μM)	Antitumor index ([1]; peptide 12.5 μM)	Antitumor index ([1]; peptide 25 μM)	Antitumor activity / proliferation of A2058 cells (in words) [2]	Antitumor index ([2]; peptide 6.25 μM)	Antitumor index ([2]; peptide 12.5 μM)	Antitumor index ([2]; peptide 25 μM)	Proliferation of SK-MEL5 cells (in words) [3]	Antitumor activity (in words) ([4]; A2058 cells, 6.25-25 μM)	Cell viability (%) ([4]; 6.25 μM)	Cell viability (%) ([4]; 12.5 μM)	Cell viability (%) ([4]; 25 μM)
IAAVIFGFLATAAYAVNTFLAKKRTLRKNDRKKR (IAAVIFGFLATAAYAVNTFLAKKRTLRKNDRKKR-NH2) [Sample 4]	significantly reduced proliferation	1.41	0.83	0.22	stronger antitumor activity	0.84	0.65	0.12					
LVNTGLSAFLFFIASIVLAALKKRTLRKNDRKKR (LVNTGLSAFLFFIASIVLAALKKRTLRKNDRKKR-NH2) [Sample 3]	significantly reduced proliferation	0.77	0.1		stronger antitumor activity				significantly reduced proliferation				
MGSNLSPQLCLMPFILGLLSGGVTTKKRTLRKNDRKKR-NH2 [Sample 5]										no antitumor activity	110.7	109.9	113.6
VAQVILALIAFICIETIMACSKKRTLRKNDRKKR (VAQVILALIAFICIETIMACSKKRTLRKNDRKKR-NH2; cysteine pairing not given here) [Sample 1]						1.17	0.71	0.74					
YFFEFVSCSAFVVTGVLLIMFKKRTLRKNDRKKR [Sample 2]						0.79	0.61	0.52					
